{"source": "patent EP0565593B1", "about": "“REDUCING PESTICIDAL INTERACTIONS IN CROPS” (priority 1990, dated 1992)", "format_in_all_cases": "in vivo", "key": {"Giant foxtail (GIFT) [1]": {"system": "Giant foxtail (GIFT)", "experiment": "Greenhouse test Procedure VI (Examples 59-61; Tables 58-60)", "text": "This procedure describes interaction among herbicide, biocide and antidote when the herbicide is incorporated in a soil cover layer and the biocide and the antidote are applied in a soil furrow containing crop seed before emergence of the crop. The soil and seeding depth were described in Procedure IV. A first container was designated as an untreated control, a second container was designated as a herbicide control, a third container was designated as a herbicide + biocide control and a fourth container as a herbicide + biocide + antidote test container. The biocide and antidote were formulated as granules. The biocide was applied to the soil furrows of the third and fourth containers at an application rate of 1.1 mg of active compound per cm of row. The antidote was applied to the soil furrow of the fourth container at an application rate of 0.37 mg of active compound per cm of row. A measured amount of the herbicide dispersed or dissolved in acetone was applied to a measured quantity of soil. The quantity of soil treated with the herbicide was thoroughly mixed to incorporate the herbicide. Samples of this soil were used to cover the seed beds of the second, third and fourth containers. For each test series, the seed bed of the first container was likewise covered by a soil layer not treated with herbicide and without biocide or antidote in the soil furrow.\nThe containers were then placed on a bench in a greenhouse. Watering was by subirrigation plus overhead irrigation after the plants emerged. All treatments were run in duplicate. Plant response was observed according to Procedure IV. Variations in this procedure will be noted in the examples.\nThe procedure used in this example involved the PPI application of biocide and safener as described in general Procedure VI above. The \"primary\" herbicide in this test was MON-12000 (Herbi-cide No. 1) in admixture with other herbicides designated as \"co-herbicides\", which included LASSO® (co-herbicide B); DUAL® (C); acetochlor (A); EPTAM® (D); butylate (E) and PURSUIT® (K).\nThe in-furrow treatments with blended COUNTER 15G and antidote mixtures was as described in above examples. MON-12000 and the co-herbicides were formulated in acetone and applied as tank mixtures, incorporated into Dupo silt loam soil with a rotary drum mixer. Subsamples were used to cover seeded and in-furrow treated 10.2 cm pots. Pots were placed on greenhouse benches and subirrigated. Plant responses were observed thirteen days after PPI initiation. Test results (average of two replications) are shown in Table 58, wherein giant foxtail (GIFT) was used in place of shattercane.\nThis test was conducted in the same manner used in Example 59. All biocide and antidote components were the same and in these tests XRD-498 (Herbicide No. 21) was the prime herbicide. Co-herbicides are shown in Table 59 together with test data.\nIn one other test conducted as described in the preceding examples in this series of tests, the herbicide PURSUIT® was used as the primary herbicide (in the context of this invention) together with the same insecticide and safeners as above and the co-herbicides shown in Table 60, together with test results."}, "grain sorghum (GRSO)": {"system": "grain sorghum (GRSO)", "experiment": "Multi-crop greenhouse test, soil-applied (Examples 65, 66; Tables 64, 65)", "procedure,_shortened": "(§1)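 Dupo silt loam pans, seeds 1.3 cm deep; safener (acetone) + COUNTER 15G granules mixed into cover soil; subirrigated. MON-12000 run: herbicide POE day 6, light overhead irrigation days 4–7, injury scored 10 d later. XRD-498 run: all three components applied together to covers. Mean of 2 reps.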"}, "soybean (SOBE)": {"system": "soybean (SOBE)", "experiment": "Multi-crop greenhouse test, soil-applied (Examples 65, 66; Tables 64, 65)", "procedure,_shortened": "as §1"}, "wheat (WHEA)": {"system": "wheat (WHEA)", "experiment": "Multi-crop greenhouse test, soil-applied (Examples 65, 66; Tables 64, 65)", "procedure,_shortened": "as §1"}, "Giant foxtail (GIFT) [2]": {"system": "Giant foxtail (GIFT)", "experiment": "whole plant or invertebrate"}, "[3]": {"details": "Table 64, Herb. No. 1 0.018 Kg/Ha + Biocide No. 1 8.96 Kg/Ha + Antidote 4.48 Kg/Ha"}, "[4]": {"details": "Table 64, Herb. No. 1 0.07 Kg/Ha + Biocide No. 1 8.96 Kg/Ha + Antidote 4.48 Kg/Ha"}, "[5]": {"details": "Table 64, Herb. No. 1 0.28 Kg/Ha + Biocide No. 1 8.96 Kg/Ha + Antidote 4.48 Kg/Ha"}, "[6]": {"details": "Table 65, Herb. No. 1 0.018 Kg/Ha + Biocide No. 1 8.96 Kg/Ha + Antidote 4.48 Kg/Ha"}, "[7]": {"details": "Table 65, Herb. No. 1 0.07 Kg/Ha + Biocide No. 1 8.96 Kg/Ha + Antidote 4.48 Kg/Ha"}, "[8]": {"details": "Table 65, Herb. No. 1 0.28 Kg/Ha + Biocide No. 1 8.96 Kg/Ha + Antidote 4.48 Kg/Ha"}}, "note": "Where “and” joins values, the source holds several entries; their conditions need not be identical. Equal values may be shown once."}
{"smiles": "COC(=O)COC(c1ccccc1)c1ccccc1", "note": "[compound 12]", "values": [{"measurement": "% Inhibition GIFT", "setting": "Giant foxtail (GIFT) [1]; Antidote + Biocide No. 1 in furrow, Herbicide No. 6 0.14 Kg/Ha PPI", "value": 60, "unit": "%"}, {"measurement": "% Inhibition GIFT", "setting": "Giant foxtail (GIFT) [1]; Antidote + Biocide No. 1 in furrow, Herbicide No. 11 0.0044 Kg/Ha PPI", "value": 0, "unit": "%"}, {"measurement": "% Inhibition GIFT", "setting": "Giant foxtail (GIFT) [1]; Antidote + Biocide No. 1 in furrow, Herbicide No. 12 0.0044 Kg/Ha PPI", "value": 0, "unit": "%"}, {"measurement": "% Inhibition GIFT", "setting": "Giant foxtail (GIFT) [1]; Antidote + Biocide No. 1 in furrow, Herbicide No. 13 0.0011 Kg/Ha PPI", "value": 0, "unit": "%"}, {"measurement": "% Inhibition GIFT", "setting": "Giant foxtail (GIFT) [1]; Antidote + Biocide No. 1 in furrow, Herbicide No. 13 0.0022 Kg/Ha PPI", "value": 25, "unit": "%"}, {"measurement": "% Inhibition GIFT", "setting": "Giant foxtail (GIFT) [1]; Antidote + Biocide No. 1 in furrow, Herbicide No. 14 0.07 Kg/Ha PPI", "value": 0, "unit": "%"}, {"measurement": "% Inhibition GIFT", "setting": "Giant foxtail (GIFT) [1]; Antidote + Biocide No. 1 in furrow, Herbicide No. 16 0.07 Kg/Ha PPI, 13 days", "value": 35, "unit": "%"}, {"measurement": "% Inhibition GIFT", "setting": "Giant foxtail (GIFT) [1]; Antidote + Biocide No. 1 in furrow, Herbicide No. 17 0.14 Kg/Ha PPI, 13 days", "value": 80, "unit": "%"}, {"measurement": "% Inhibition GIFT", "setting": "Giant foxtail (GIFT) [1]; Antidote + Biocide No. 1 in furrow, Herbicide No. 18 0.04 Kg/Ha PPI, 13 days", "value": 50, "unit": "%"}, {"measurement": "% Inhibition GIFT", "setting": "Giant foxtail (GIFT) [1]; Antidote + Biocide No. 1 in furrow, Herbicide No. 20 1.12 Kg/Ha PPI, 13 days", "value": 25, "unit": "%"}, {"measurement": "% Inhibition GIFT", "setting": "Giant foxtail (GIFT) [1]; Antidote + Biocide No. 1 in furrow, Herbicide No. 22 0.28 Kg/Ha PPI, 13 days", "value": 20, "unit": "%"}, {"measurement": "% Inhibition GIFT", "setting": "Giant foxtail (GIFT) [1]; Antidote + Biocide No. 1 in furrow, Herbicide No. 24 0.14 Kg/Ha PPI, 13 days", "value": 20, "unit": "%"}, {"measurement": "% Inhibition GIFT", "setting": "Giant foxtail (GIFT) [1]; Antidote + Biocide No. 1 in furrow, Herbicide No. 25 0.14 Kg/Ha PPI, 13 days", "value": 25, "unit": "%"}, {"measurement": "% Inhibition GIFT", "setting": "Giant foxtail (GIFT) [1]; Antidote + Biocide No. 1 in furrow, Herbicide No. 26 2.24 Kg/Ha PPI, 13 days", "value": 0, "unit": "%"}, {"measurement": "% Inhibition GIFT", "setting": "Giant foxtail (GIFT) [1]; Antidote + Biocide No. 1 in furrow, Herbicide No. 28 0.04 Kg/Ha PPI, 13 days", "value": 35, "unit": "%"}, {"measurement": "% Inhibition GIFT", "setting": "Giant foxtail (GIFT) [1]; Herbicide No. 12 0.0044 Kg/Ha PPI + Biocide No. 1 in furrow, no antidote", "value": 0, "unit": "%"}, {"measurement": "% Inhibition GIFT", "setting": "Giant foxtail (GIFT) [1]; Herbicide No. 12 0.0044 Kg/Ha PPI alone, average of two reps", "value": 0, "unit": "%"}, {"measurement": "% Inhibition GRSO", "setting": "grain sorghum (GRSO); [3]", "value": 0, "unit": "%"}, {"measurement": "% Inhibition GRSO", "setting": "grain sorghum (GRSO); [4]", "value": 15, "unit": "%"}, {"measurement": "% Inhibition GRSO", "setting": "grain sorghum (GRSO); [5]", "value": 0, "unit": "%"}, {"measurement": "% Inhibition GRSO", "setting": "grain sorghum (GRSO); [6]", "value": 0, "unit": "%"}, {"measurement": "% Inhibition GRSO", "setting": "grain sorghum (GRSO); [7]", "value": 20, "unit": "%"}, {"measurement": "% Inhibition GRSO", "setting": "grain sorghum (GRSO); [8]", "value": 55, "unit": "%"}, {"measurement": "% Inhibition SOBE", "setting": "soybean (SOBE); [3]", "value": 5, "unit": "%"}, {"measurement": "% Inhibition SOBE", "setting": "soybean (SOBE); [4]", "value": 70, "unit": "%"}, {"measurement": "% Inhibition SOBE", "setting": "soybean (SOBE); [5]", "value": 80, "unit": "%"}, {"measurement": "% Inhibition SOBE", "setting": "soybean (SOBE); [6]", "value": 0, "unit": "%"}, {"measurement": "% Inhibition SOBE", "setting": "soybean (SOBE); [7]", "value": 0, "unit": "%"}, {"measurement": "% Inhibition SOBE", "setting": "soybean (SOBE); [8]", "value": 15, "unit": "%"}, {"measurement": "% Inhibition WHEA", "setting": "wheat (WHEA); [3]", "value": 0, "unit": "%"}, {"measurement": "% Inhibition WHEA", "setting": "wheat (WHEA); [4]", "value": 0, "unit": "%"}, {"measurement": "% Inhibition WHEA", "setting": "wheat (WHEA); [5]", "value": 0, "unit": "%"}, {"measurement": "% Inhibition WHEA", "setting": "wheat (WHEA); [6]", "value": 0, "unit": "%"}, {"measurement": "% Inhibition WHEA", "setting": "wheat (WHEA); [7]", "value": 0, "unit": "%"}, {"measurement": "% Inhibition WHEA", "setting": "wheat (WHEA); [8]", "value": 20, "unit": "%"}, {"measurement": "% Inhibition GIFT", "setting": "Giant foxtail (GIFT) [2]; […], PPI, 14 days after PPI (Table 34)", "value": 60, "unit": "%"}, {"measurement": "% Inhibition GIFT", "setting": "Giant foxtail (GIFT) [2]; in vivo", "value": "45% and 65% and 75% and 50% and 55% and 70% and 90%"}]}
